From paper PMC10648349, “Aromatic Diboronic Acids as Effective KPC/AmpC Inhibitors” (Molecules, 2023)
In brackets after ≈: the same amount, converted by molar mass.

What was measured:
C. krusei ATCC 6258 = experiment: antifungal activity (disc-diffusion, MIC, MFC); assay type: cell-based, Candida krusei; details: Pichia kudriavzevii, ATCC6258; for MIC: fluconazole by Etest
Experimental: (§1) Direct antimicrobial activity against Gram-negative and Gram-positive bacterial strains, as well as against yeast, was examined as previously described by the disc-diffusion test, the MIC determination assay, the MBC (for bacteria), and the MFC (for yeasts) determination tests. All the above-mentioned tests were performed according to EUCAST [71, 72] and CLSI [73, 74, 75, 76, 77] recommendations. The following reference agents were used: nitrofurantoin (for Gram-negative rods), linezolid (for Gram-positive bacteria), and fluconazole (in the case of fungi). The new aromatic diboronic acids were dissolved in DMSO (Sigma, St. Louis, MO, USA). In the disc-diffusion test, the concentration of new agents was 0.4 mg per disc.

[1] = system: S. aureus ATCC 43300 MRSA; experiment: direct antimicrobial activity (disc-diffusion, MIC, MBC); assay type: cell-based; details: Staphylococcus aureus
Experimental: as §1

E. faecium ATCC 6057 = experiment: as above; assay type: cell-based; details: Enterococcus faecium, ATCC6057
Experimental: as §1

[2] = system: S. epidermidis ATCC 12228; experiment: as above; assay type: cell-based; details: Staphylococcus epidermidis, ATCC12228
Experimental: as §1

S. aureus ATCC 6538P = experiment: as above; assay type: cell-based; details: Staphylococcus aureus, ATCC6538P
Experimental: as §1

E. faecalis ATCC 29212 = experiment: as above; assay type: cell-based; details: Enterococcus faecalis, ATCC29212
Experimental: as §1

[3] = system: C. guilliermondii IBA 155; experiment: antifungal activity (disc-diffusion, MIC, MFC); assay type: cell-based, Candida guilliermondii; details: Meyerozyma guilliermondii, IBA155; for MIC: fluconazole by Etest
Experimental: as §1

[4] = system: C. parapsilosis ATCC 22019; experiment: antifungal activity (disc-diffusion, MIC, MFC); assay type: cell-based, Candida parapsilosis; details: Lodderomyces parapsilosis, ATCC22019; for MIC: fluconazole by Etest
Experimental: as §1

[5] = MTT-based viability assay; assay type: cell-based; details: human, MRC-5 human fibroblasts, 72 h, read-out: Viability of MRC-5 cells (% of viable cells ± SD)
Experimental: MRC-5 human fibroblasts (ECACC) were cultured in MEME, Minimum Essential Medium Eagle (Merck) supplemented with 10% fetal bovine serum (Merck), 2 mM l-glutamine, antibiotics (100 U/mL penicillin, 100 μg/mL streptomycin, Merck) and 1% non-essential amino acids (Merck). Cells were grown in 75 cm^2 cell culture flasks (Sarstedt) in a humidified atmosphere of CO2/air (5/95%) at 37 °C. MTT-based viability assay was conducted as described previously. Optical densities were measured at 570 nm using a BioTek microplate reader. All measurements were carried out in three replicates, and the results were expressed as a percent of viable cells versus control cells.

C. tropicalis IBA 171 = experiment: antifungal activity (disc-diffusion, MIC, MFC); assay type: cell-based; details: Candida tropicalis, IBA171; for MIC: fluconazole by Etest
Experimental: as §1

C. albicans ATCC 90028 = experiment: antifungal activity (disc-diffusion, MIC, MFC); assay type: cell-based; details: Candida albicans, ATCC90028; for MIC: fluconazole by Etest
Experimental: as §1

S. cerevisiae ATCC 9763 = experiment: antifungal activity (disc-diffusion, MIC, MFC); assay type: cell-based; details: Saccharomyces cerevisiae, ATCC9763; for MIC: fluconazole by Etest
Experimental: as §1

C. tropicalis ATCC 750 = experiment: antifungal activity (disc-diffusion, MIC, MFC); assay type: cell-based; details: Candida tropicalis, ATCC750; for MIC: fluconazole by Etest
Experimental: as §1

[6] = system: K. pneumoniae ATCC BAA-1705 KPC-2(+); experiment: MIC of tested agent alone, microdilution; assay type: cell-based; details: Klebsiella pneumoniae, ATCCBAA1705; read-out: MIC of agent alone
Experimental: (§2) To examine the ability of tested agents to inhibit various carbapenemases and AmpC-enzymes, their synergy with antibiotics against β-lactamase-producing strains was assessed by checkerboard microdilution assay, with slight modification. Checkerboards were prepared in microtiter plates, with seven two-fold dilutions of β-lactams (1–64 mg/L) in the rows and three two-fold dilutions of tested agents and PBA (4–16 mg/L) in the columns. Tested agents’ concentrations were limited to the concentrations at which the newest commercially available BLIs (vaborbactam, relebactam, and avibactam) are used in susceptibility testing. Plates were inoculated and incubated as in the MIC microdilution assay. Parallel, MICs of tested agents and PBA alone were determined by the microdilution assay. Following the incubation, antibiotic MICs in the presence of each agent’s concentration were determined. Moreover, for the first well without growth found in each checkerboard row and column along the growth/non-growth interface, the fractional inhibitory concentration index (FICI) was calculated using the formula below:FICI = [(MIC of antibiotic in combination)/(MIC of antibiotic alone)] + [(MIC of the tested agent in combination)/(MIC of tested agent alone)].

E. coli 77 CMY-2(+) = experiment: MIC of tested agent alone, microdilution; assay type: cell-based; details: Escherichia coli; read-out: MIC of agent alone
Experimental: as §2

[7] = system: P. aeruginosa MUW 700 AmpC(+); experiment: MIC of tested agent alone, microdilution; assay type: cell-based; details: Pseudomonas aeruginosa; read-out: MIC of agent alone
Experimental: as §2

[8] = system: K. pneumoniae 81 KPC-3(+); experiment: MIC of tested agent alone, microdilution; assay type: cell-based; details: Klebsiella pneumoniae; read-out: MIC of agent alone
Experimental: as §2

E. coli 76 KPC-2(+) = experiment: MIC of tested agent alone, microdilution; assay type: cell-based; details: Escherichia coli; read-out: MIC of agent alone
Experimental: as §2

[9] = system: K. pneumoniae 83 KPC-3(+), CTX-M-3(+); experiment: MIC of tested agent alone, microdilution; assay type: cell-based; details: Klebsiella pneumoniae; read-out: MIC of agent alone
Experimental: as §2

[10] = system: P. aeruginosa MUW 700 cAmpC-positive; experiment: combination disc test CDT-AmpC; assay type: cell-based; details: Pseudomonas aeruginosa
[11] = system: K. pneumoniae ATCC 700603 ESBL-positive; experiment: combination disc test CDT-ESBL; assay type: cell-based; details: Klebsiella pneumoniae, ATCC700603
[12] = system: K. pneumoniae ATCC BAA 1705 KPC-2-positive; experiment: combination disc test CDT-KPC; assay type: cell-based; details: Klebsiella pneumoniae, BAA1705; agent 0.3 mg per disc; read-out: Diameter of inhibition zone, MEM-10 disc with agent
[13] = system: E. coli 77 CMY-2-positive; experiment: combination disc test CDT-AmpC; assay type: cell-based; details: Escherichia coli
[14] = system: E. coli 77 CMY-2-positive; experiment: checkerboard microdilution, antibiotic plus tested agent; assay type: cell-based, Escherichia coli; details: Escherichia coli; read-out: MIC of ceftazidime alone
Experimental: as §2
(§3) For calculations, all off-scale MICs were converted to the next-highest doubling concentration. Subsequently, both the average and the lowest FICI were interpreted. The interpretation was as follows: FICI ≤ 0.5, synergy; 0.5 < FICI ≤ 4, indifference and FICI > 4, antagonism. Primarily, examined combinations consisted of meropenem (Pol-Aura, Morag, Poland) plus tested agents against carbapenemases-producing strains and ceftazidime (Pol-Aura, Morag, Poland) plus tested agents against AmpC-producing strains. For agents that reduced meropenem MIC at least 4-fold for at least two tested strains, similar assays were performed with imipenem (Pol-Aura, Morag, Poland) and ertapenem (Pol-Aura, Morag, Poland).

[15] = system: P. aeruginosa MUW 700 cAmpC-positive; experiment: as above; assay type: cell-based, Pseudomonas aeruginosa; details: Pseudomonas aeruginosa; read-out: MIC of ceftazidime alone
Experimental: as §2, §3

[16] = system: E. coli 76 KPC-2-positive; experiment: as above; assay type: cell-based, Escherichia coli; details: Escherichia coli; read-out: MIC of imipenem alone
Experimental: as §2, §3

[17] = system: K. pneumoniae 83 KPC-3-positive, CTX-M-3-positive; experiment: as above; assay type: cell-based, Klebsiella pneumoniae; details: Klebsiella pneumoniae; read-out: MIC of imipenem alone
Experimental: as §2, §3

[18] = system: K. pneumoniae 81 KPC-3-positive; experiment: as above; assay type: cell-based, Klebsiella pneumoniae; details: Klebsiella pneumoniae; read-out: MIC of imipenem alone
Experimental: as §2, §3

[19] = system: K. pneumoniae ATCC BAA-1705 KPC-2-positive; experiment: as above; assay type: cell-based, Klebsiella pneumoniae; details: Klebsiella pneumoniae, ATCCBAA1705; read-out: MIC of imipenem alone
Experimental: as §2, §3

[20] = agent 0.3 mg per disc, read-out: Diameter of inhibition zone, CAZ-30 disc with agent
[21] = ceftazidime 30 µg per disc, 6 mm disc, read-out: Diameter of inhibition zone, CAZ-30 disc without agent
[22] = 0.4 mg per disc, 9 mm disc (fluconazole 0.025 mg, 6 mm disc), - no zone, read-out: Diameter of inhibition zone

Compound	MIC (C. krusei ATCC 6258)	MIC [1]	MIC (E. faecium ATCC 6057)	MIC [2]	MIC (S. aureus ATCC 6538P)	MIC (E. faecalis ATCC 29212)	MIC [3]	MIC [4]	MIC (C. tropicalis IBA 171)	MIC (C. albicans ATCC 90028)	MIC (S. cerevisiae ATCC 9763)	MIC (C. tropicalis ATCC 750)	viability at 72 h, 12.5 mg/L [5]	viability at 72 h, 25 mg/L [5]	viability at 72 h, 50 mg/L [5]	further results
COc1cc(B(O)O)c(OC)cc1B(O)O [1l]													110 ± 1.6%	114 ± 1.8%	105 ± 7.8%	
CC(C)(O/N=C(\C(=O)N[C@@H]1C(=O)N2C(C(=O)[O-])=C(C[n+]3ccccc3)CS[C@H]12)c1csc(N)n1)C(=O)O [CAZ, ceftazidime, reference compound]																MIC [14]: 64 µg/mL; MIC [15]: 128 µg/mL; zone of inhibition at 30 µg/disc [10, 21]: 11 mm; zone of inhibition at 30 µg/disc [11, 21]: 14 mm; zone of inhibition at 30 µg/disc [13, 21]: 13 mm
OC(Cn1cncn1)(Cn1cncn1)c1ccc(F)cc1F [Fl, fluconazole, reference compound]	64 µg/mL (≈ 209 µM)						0.75 µg/mL (≈ 2.45 µM)	2 µg/mL (≈ 6.53 µM)	0.38 µg/mL (≈ 1.24 µM)	1 µg/mL (≈ 3.27 µM)	16 µg/mL (≈ 52.2 µM)	0.38 µg/mL (≈ 1.24 µM)				zone of inhibition at 0.4 mg/disc (C. krusei ATCC 6258; [22]): 16 mm; zone of inhibition at 0.4 mg/disc [3, 22]: 40 mm; zone of inhibition at 0.4 mg/disc [4, 22]: 32 mm; zone of inhibition at 0.4 mg/disc (C. tropicalis IBA 171; [22]): 39 mm; zone of inhibition at 0.4 mg/disc (C. albicans ATCC 90028; [22]): 43 mm; zone of inhibition at 0.4 mg/disc (S. cerevisiae ATCC 9763; [22]): 12 mm; zone of inhibition at 0.4 mg/disc (C. tropicalis ATCC 750; [22]): 40 mm
C[C@@H](O)[C@H]1C(=O)N2C(C(=O)O)=C(SCCN=CN)C[C@H]12 [IMI, imipenem, reference compound]																MIC [16]: 128 µg/mL; MIC [17]: 8 µg/mL; MIC [18]: 8 µg/mL; MIC [19]: 16 µg/mL

More lines, main results first:

MIC (C. krusei ATCC 6258)	MIC [1]	MIC (E. faecium ATCC 6057)	MIC [2]	MIC (S. aureus ATCC 6538P)	MIC (E. faecalis ATCC 29212)	MIC [3]	MIC [4]	MIC (C. tropicalis IBA 171)	MIC (C. albicans ATCC 90028)	MIC (S. cerevisiae ATCC 9763)	MIC (C. tropicalis ATCC 750)	Compound	viability at 72 h, 12.5 mg/L [5]	viability at 72 h, 25 mg/L [5]	viability at 72 h, 50 mg/L [5]	further results
400 µg/mL (≈ 1680 µM)	> 400 µg/mL	> 400 µg/mL	> 400 µg/mL	> 400 µg/mL	> 400 µg/mL	> 400 µg/mL	> 400 µg/mL	> 400 µg/mL	> 400 µg/mL	> 400 µg/mL	> 400 µg/mL	OB(O)c1c(F)c(F)c(B(O)O)c(F)c1F [1g]	104 ± 8.2%	107 ± 9.2%	98.7 ± 5.8%	
> 400 µg/mL	> 400 µg/mL	400 µg/mL (≈ 2040 µM)	> 400 µg/mL	> 400 µg/mL	> 400 µg/mL	> 400 µg/mL	> 400 µg/mL	> 400 µg/mL	> 400 µg/mL	> 400 µg/mL	> 400 µg/mL	COc1c(B(O)O)cccc1B(O)O [2g]	111 ± 9.7%	117 ± 3.7%	103 ± 5.1%	MIC [6]: > 400 µg/mL; MIC (E. coli 77 CMY-2(+)): > 400 µg/mL; MIC [7]: > 400 µg/mL; MIC [8]: > 400 µg/mL; MIC (E. coli 76 KPC-2(+)): > 400 µg/mL; MIC [9]: > 400 µg/mL; zone of inhibition at 300 µg/disc [10, 20]: 19 mm; zone of inhibition at 300 µg/disc [11, 20]: 13 mm; zone of inhibition at 300 µg/disc [12]: 6 mm; zone of inhibition at 300 µg/disc [13, 20]: 20 mm
400 µg/mL (≈ 2330 µM)	> 400 µg/mL	> 400 µg/mL	> 400 µg/mL	> 400 µg/mL	200 µg/mL (≈ 1160 µM)	> 400 µg/mL	> 400 µg/mL	> 400 µg/mL	400 µg/mL (≈ 2330 µM)	> 400 µg/mL	> 400 µg/mL	OB(O)c1ccc(B(O)O)s1 [5b]	101 ± 7.7%	110 ± 2.7%	87.3 ± 13.6%	
> 400 µg/mL	400 µg/mL	400 µg/mL	400 µg/mL	50 µg/mL	> 400 µg/mL	> 400 µg/mL	> 400 µg/mL	> 400 µg/mL	> 400 µg/mL	> 400 µg/mL	> 400 µg/mL	Cl.OB(O)c1cncc(B(O)O)c1 [6a, pyridine-3,5-diboronic acid hydrochloride]	138 ± 3.6%	133.5 ± 0.7%	127 ± 2.6%	
